In patent US20040048279A1, “Method for detecting methylation states for a toxicological diagnostic” (priority 2000, published 2004):

What was measured:
Cyp1a1 = settings: mice exposed to the substance; Arch Biochem Biophys 2000;376(1):66-73; cited from earlier work
HT29-P208 cells = test: Methylation state of CpG positions by bisulfite treatment, multiplex PCR and oligonucleotide array hybridization in treated HT29-P208 cells; assay type: cell-based; settings: for methylation state of selected CpG positions of the genes EGFR, ANT1 and CDC25A (CG signal / (CG+TG signal)): trichostatin 50 nM or milrinone 50 μM, FIG. 4; for methylation state of selected CpG positions of the genes EGFR, ANT1 and CDC25A (CG signal / (CG+TG signal)) / methylation state of selected CpGs of the genes TGF-a, EGFR, ANT1 and E-cadherin (CG signal / (CG+TG signal)): treated versus untreated; for methylation state of selected CpGs of the genes TGF-a, EGFR, ANT1 and E-cadherin (CG signal / (CG+TG signal)): FIG. 3; for differences in methylation of 64 gene fragments versus controls: treatment time 6 h (data not shown); for degree of methylation of various CpG positions of 64 gene fragments, in contrast to controls (HT29-P208 in medium): treatment time 24 h, 10 ng/ml TGF-b1 or 10 ng/ml IL-1b in medium, FIGS. 1 and 2, p<0.05
Experimental: HT-29 P208 cells (5×10^4 cells/ml) were seeded in culture dishes (33×5 cm) and grown for 5 days in DMEM/Ham's F-12 medium, which was supplemented with 10% fetal calf serum at 37° C. and 5% CO2, up to 95% confluence (Campbell-Thompson, M. and Bhardwaj, B., Cancer Research 2001, 61, 632-640). The cells were then incubated for 24 h in medium not containing calf serum. After repeated change of medium, the cells were incubated in 3 parallel cultures for 6 h and 24 h, either with medium, medium supplemented with 10 ng/ml TGF-b1, medium supplemented with 10 ng/ml IL-1b, medium supplemented with trichostatin (50 nM) or medium supplemented with milrinone (50 μM). The cells freed of medium were treated with trypsin, centrifuged, and resuspended in 200 μl of PBS buffer (Fritsch and Maniatis eds., Molecular Cloning: A Laboratory Manual, 1989), and stored at −20° C. The chromosomal DNA was purified with a QIAamp Kit according to the manufacturer's instructions (Qiagen, Hilden).
The DNA samples (20 ng) were digested with the restriction enzyme Mss1. The digested DNA was chemically converted with hydrogen sulfite (bisulfite, disulfite) and a radical trap at elevated temperature (DE 10050942). In this way, after alkaline hydrolysis, all unmethylated cytosines are converted to uracil, which correspond in their base-pairing behavior to thymidine. In contrast, 5-methylcytosine is not modified under these conditions.
The chemically pretreated DNA was then amplified with the use of a heat-stable DNA polymerase in a polymerase chain reaction. The multiplex PCR reactions were conducted with a thermocycler (Eppendorf GmbH) with the use of 10 ng of bisulfite-treated DNA, each time with […] of primer oligonucleotides (mixture of up to 32 individual primer oligonucleotides; see Table 3), 800 μM dNTPs and 4.5 mM magnesium chloride. The cycler program was as follows: step 1, 14 min at 96° C.; step 2, 60 sec 96° C.; step 3, 45 sec 55° C.; step 4, 75 sec 72° C.; step 5, 10 min at 72° C.; steps 2 to 4 were repeated 39 times.
The DNA fragments of 64 different genes listed in Table 3 were amplified with 6 sets of multiplex PCR (mPCR) and with bisulfite-treated DNA as the template, as described above. The mPCR reactions (I, J, K, L, M, N) of the genomic, bisulfite-treated DNA were conducted with the combination of primer oligonucleotides as listed in Table 3. It is also possible, however, to use other primer oligonucleotides in the same way for the amplification of the genomic, bisulfite-treated DNA. The primer pairs listed in Table 1, however, are particularly preferred.
The amplificates produced in Example 2 were hybridized with 512 oligonucleotides, which were bound to a solid phase (Model, F. and Adorjian, P., Bioinformatics 2001, 17 Suppl. 1, 157-164). The solid phase loaded with oligonucleotides is named an oligonucleotide array below. The detectability of the hybridization product is based on primer oligonucleotides fluorescently labeled with Cy5, which were used for the amplification. A hybridization reaction of the amplified DNA with the oligonucleotide, for example, GTTTTTTTCGTTTTAGAG (Sequence ID 6), occurs only when a methylated cytosine is present at the said site of the bisulfite-treated DNA. Thus, the methylation state of the specific cytosine can be determined by means of the hybridization product. In order to verify the methylation state of said position, an oligonucleotide is found on the oligonucleotide array, which permits it to detect the unmethylated cytosine. This oligonucleotide is identical to the oligonucleotide which was previously used for the analysis of the methylated status of the sample, with the exception that the oligonucleotide bears a thymine base instead of a cytosine base at the position to be analyzed, e.g., GTTTTTTTTGTTTTAGAG (Sequence ID 7). Thus, a hybridization reaction occurs only if an unmethylated cytosine is present at the position to be analyzed. […]

Compound	Cyp1a1 gene expression after exposure (Cyp1a1)	methylation state of selected CpG positions of the genes EGFR, ANT1 and CDC25A (CG signal / (CG+TG signal)) (HT29-P208 cells)	methylation state of selected CpGs of the genes TGF-a, EGFR, ANT1 and E-cadherin (CG signal / (CG+TG signal)) (HT29-P208 cells)	differences in methylation of 64 gene fragments versus controls (HT29-P208 cells)	degree of methylation of various CpG positions of 64 gene fragments, in contrast to controls (HT29-P208 in medium) (HT29-P208 cells)
O=c1cc(-c2ccccc2)oc2ccc3ccccc3c12 [beta-naphthoflavone]	induced	–	–	–	–
Cc1[nH]c(=O)c(C#N)cc1-c1ccncc1 [milrinone, reference compound]	–	reduction in the methylation state	–	–	–
CC(/C=C/C(=O)NO)=C\[C@@H](C)C(=O)c1ccc(N(C)C)cc1 [trichostatin, reference compound]	–	increase	–	–	–
IL-1b: IL-1b (interleukin), exogenous cytokine added to medium at 10 ng/ml	–	–	no change or to an increase in the methylation state	no significant differences in methylation	greater degree of methylation
TGF-b1: TGF-b1 (transforming growth factor), exogenous cytokine added to medium at 10 ng/ml	–	–	significant reduction of the methylation state	no significant differences in methylation	smaller degree of methylation
